According to US20210308101A1, “METHODS OF TREATING FIBROMYALGIA” (Aptinyx Inc., priority 2019, published 2021):

Experiments:
Format in all cases: in vivo, human
[1] = test system: pain-evoked brain activity; test: fMRI of evoked cuff pain, BOLD activations
Excerpt: As used herein, “Functional Magnetic Resonance Imaging of Evoked Pain and Visual Stimulation” refers to the following procedure. During evoked pain and visual stimulation fMRI paradigms, participants were lying in the scanner as they received either pressure stimulation to their calf muscle or they experienced an unpleasant visual stimulus. For both pain and visual stimulation, whole-brain Blood Oxygenation Level Dependent (BOLD) functional images were acquired.
Each subject underwent a 12-minute block design scan, during which 3 cuff pressure levels (2 equal pressures=15 to 30 and 100 to 115 mmHg; and 1 equal pain=40 to 60/100 numerical rating scale [NRS] units) were applied to the left calf […] using the pressure cuff device in pseudo-random order for a total of 12 pressure stimulations. Pressure levels for each subject were determined during the QST assessment. Each pressure stimulus was applied for 14 seconds. Prior to each pressure stimulus, a 4-second visual cue was presented to signal upcoming cuff pressure to limit any stimulus-onset startle reflex. Subjects' head motion was minimized using foam pads around the head, and a strap secured across the forehead.
As with functional connectivity analyses, pre-processing of images occurs using SPM12. The first 5 images were discarded from the data set and not used for further analysis in order to correct for equilibration effects. Pre-processing steps included: physio-correction, motion correction, coregistration, normalization, and smoothing (FWHM 6 or 8 mm). First level analyses were performed using the general linear model (GLM) implemented in SPM12. Motion parameters from re-alignment were modelled as regressors of no interest. Pain and visual blocks were convolved with a canonical hemodynamic response function and contrasted with rest blocks of no stimulation. These activation maps were then passed up to group-level analyses comparing differences in activations at the analysis visits of interest in SPM. Resulting maps were set at an uncorrected voxel threshold of p<0.001, with p<0.05 FDR or FWE significance corrected for multiple comparisons. The primary analyses were a paired sample t-tests between placebo images and NYX-2925 images (either 20 or 200 mg).
Several analyses were conducted with the fMRI resting state and task data. Results were assessed by: 1) a primary analysis, where a finding was deemed significant with a corrected cluster level p<0.05, derived from an uncorrected voxel-wise p<0.001, and 2) an exploratory analysis, where a finding was deemed significant with an uncorrected voxel-wise p<0.005 and having a cluster greater than or equal to 80 contiguous voxels. Results that met significance in the primary analyses had connectivity values extracted and imported into SPSS v25 where paired t-tests were performed to assess for potential outliers contributing to the finding. Remaining data were then correlated with clinical measures using parametric bivariate Pearson correlations. Results were deemed significant at p<0.05.

[2] = test system: subjects with fibromyalgia; test: Hospital Anxiety and Depression Scale (HADS); conditions: Weeks 4 and 6
Excerpt: As used herein, “HADS” is Hospital Anxiety and Depression Scale. The HADS is a self-reported screening tool for anxiety and depression in non-psychiatric clinical populations. The scale consists of 14 items (7 each for anxiety and depression), each rated on a 4-point scale ranging from 0 to 3 (i.e. 0=not at all; 3=most of the time). The categorical responses are slightly different for some of the questions, but the numeric scores remained the same from 0 to 3. Responses were based on the relative frequency of symptoms over the preceding week. […] The individual imputed missing scores used the specific subscale mean score and were rounded off to the nearest whole number. If an individual subscale score was missing 4 or more items, then that subscale score was set to missing. A total score adding the anxiety and depression subscale scores for HADS was not calculated. Possible scores range from 0 to 21 for each subscale. […]
The HADS assessment was collected and analyzed at visits Screening, Day 1, Week 2, Week 4, Week 6, and Follow-up (Week 7). […] Additionally, the treatment group comparisons were analyzed using the paired t-test and nonparametric Wilcoxon signed-rank test.
The 4 interpreted categorical values for each subscale were summarized in a frequency distribution table. All HADS data collected and the calculated subscale scores at each visit were presented in a subject listing.

[3] = test system: subjects with fibromyalgia; test: Fibromyalgia Survey Questionnaire (Widespread Pain Index, Symptom Severity Score)
Excerpt: As used herein, “FSQ” is Fibromyalgia Survey Questionnaire, which is a patient-reported tool to assess the 2011 ACR Fibromyalgia criteria circumventing the requirement of physician assessment. The criteria review the widespread pain index, and somatic symptoms. The somatic symptoms of fatigue, waking unrefreshed, and cognitive symptoms were scored from 0 (no problem) to 3 (severe, pervasive, continuous, life disturbing problems). Symptoms of headaches, pain or cramps in the lower abdomen, and depression were given a score of 1, if they had occurred in the past 3 months.
As used herein, “WPI” is the Widespread Pain Index, which is a score comprised of 19 areas where subjects experienced pain within the last week with a yes or no response for each area. Each individual yes response has a numeric value of 1 and 0 is assigned to each no response. The WPI score had values ranging from 0 to 19. If any of the individual area responses were missing, the WPI score was not calculated. Here are the 19 areas that were assessed: Left Jaw, Right Jaw, Left Shoulder, Right Shoulder, Right Upper Arm, Left Upper Arm, Right Lower Arm, Left Lower Arm, Neck, Upper Back, Chest, Abdomen, Lower Back, Right Hip, Left Hip, Right Upper Leg, Left Upper Leg, Right Lower Leg, and Left Lower Leg.
As used herein, “SS” is the Symptom Severity Score, based on 3 questions each having a numeric score ranging from 0 to 3 and an additional 3 questions each having a numeric score of 0 or 1. If all 6 questions were given a numeric score, then the Symptom Severity Score ranged from 0 to 12. If any of the individual scores were missing, the Symptom Severity Score was not calculated.
As used herein, “ACR Fibromyalgia Criteria” is 2011 American College of Rheumatology Fibromyalgia Criteria, and includes FSQ, WPI, and SS. These assessments were analyzed at Day 1, Week 2, Week 4, Week 6, and Follow-up (Week 7). Both the observed Widespread Pain Index score and Symptom Severity Score, changes from baseline, and changes from treatment periods were summarized using descriptive statistics. Additionally, the treatment group comparisons were analyzed using the paired t-test and nonparametric Wilcoxon signed-rank test. A frequency distribution table was presented for yes/no responses for these categories: • Widespread Pain Index ≥7 and Symptom Severity Score >5 • Widespread Pain Index is 3 to 6 and the Symptom Severity Score is >9

[4] = Week 2 (placebo) to Week 4 (NYX-2925 20 mg), not statistically significant

CC(C)C(=O)N1CCC[C@]12CN([C@H](C(N)=O)[C@@H](C)O)C2=O [NYX-2925, (2S, 3R)-3-hydroxy-2-((R)-5-isobutyryl-1-oxo-2,5-diazaspiro[3.4]octan-2-yl)butanamide]
pain-evoked brain activity in brain imaging, subject 1 ([1]; 200 mg dose vs placebo, FIGS. 4A, 4B): reduced pain-related brain activity
pain-evoked brain activity in brain imaging, subject 2 ([1]; 200 mg dose vs placebo, FIGS. 4C, 4D): reduction in pain-related brain activity
BOLD activations in right mid cingulate cortex and left primary somatosensory cortex/supplementary motor area ([1]; exploratory, placebo visit to NYX-2925 20 mg visit): decreased
BOLD activations in right putamen/insula, bilateral primary somatosensory/cingulate cortex, left putamen, left posterior insula ([1]; exploratory, placebo visit to NYX-2925 200 mg visit): decreased
BOLD activations, evoked cuff pain task (Pain50 pressure > rest) ([1]; primary analyses): No significant BOLD activations
HADS Total Anxiety score, mean changes from Week 2 (placebo) [2]: No statistically significant mean changes
HADS Total Depression score, mean changes from Week 2 (placebo) [2]: No statistically significant mean changes
Symptom Severity score, mean change [3, 4]: −0.3
Widespread Pain Index, mean change [3, 4]: 0.0
Widespread Pain Index, mean change ([3]; Week 2 (placebo) to Week 6 (NYX-2925 200 mg), not statistically significant): −1.3
Symptom Severity score, mean change ([3]; Week 2 (placebo) to Week 6 (NYX-2925 200 mg), statistically significant): −0.9
